Reference: ChEMBL document CHEMBL3414535, “Identification and optimization of Escherichia coli GlmU inhibitors: an in silico approach with validation thereof” (Eur J Med Chem, 2015)
pIC50: −log10 of the molar value.

molecular target: Bifunctional protein GlmU (Escherichia coli (strain K12)) (UniProt P0ACC7); assay: Inhibition of Escherichia coli GlmU acetyltransferase activity assessed as coenzyme A production using acetyl CoA substrate at 100 uM
Sequence (P0ACC7 whole entry, looked up): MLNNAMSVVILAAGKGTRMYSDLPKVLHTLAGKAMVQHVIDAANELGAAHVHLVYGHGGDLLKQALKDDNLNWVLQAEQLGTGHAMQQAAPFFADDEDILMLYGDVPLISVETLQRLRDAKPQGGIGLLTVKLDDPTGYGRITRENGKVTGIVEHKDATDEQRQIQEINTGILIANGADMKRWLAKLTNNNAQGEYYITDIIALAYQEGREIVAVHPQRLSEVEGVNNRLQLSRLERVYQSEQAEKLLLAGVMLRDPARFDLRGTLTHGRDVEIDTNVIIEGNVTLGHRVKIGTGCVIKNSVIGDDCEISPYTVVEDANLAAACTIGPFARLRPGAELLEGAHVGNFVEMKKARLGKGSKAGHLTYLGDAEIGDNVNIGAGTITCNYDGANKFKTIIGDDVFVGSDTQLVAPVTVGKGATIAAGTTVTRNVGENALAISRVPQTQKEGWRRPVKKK

In order of rising inhibition:
1. COC(=O)c1cc(S(=O)(=O)Nc2cccc(Cl)c2C)c[nH]1  3.74%
2. COC(=O)c1cc(S(=O)(=O)Nc2ccc(C)cc2Cl)c[nH]1  5.22%
3. COC(=O)c1cc(S(=O)(=O)Nc2cccc(SC)c2)c[nH]1  5.65%
4. CCOC(=O)c1cc(S(=O)(=O)N2CCCC2C(=O)N2CCCC2)cn1C (configuration not stated)  7.99%
5. CCOC(=O)CC1(c2ccccc2)SC(NC(C)=O)=NN1C(C)=O (configuration not stated)  9.41%
6. CCc1ccccc1NS(=O)(=O)c1ccc(-c2ccc(=O)[nH]n2)o1  9.82%
7. CCOC(=O)c1cc(S(=O)(=O)N2CCCC2C(=O)NC(C)C)cn1C (configuration not stated)  10.3%
8. Cc1ccc(S(=O)(=O)n2ccn(C(=O)C(C)Oc3ccccc3)c2=O)cc1 (configuration not stated)  11.1%
9. CCOC(=O)c1cc(S(=O)(=O)N(C)CC(=O)Nc2ccc(F)cc2)cn1C  11.9%
10. COCCNC(=O)c1ccccc1NS(=O)(=O)c1ccc2c(c1)OCCO2  12%
11. Cc1cc(S(=O)(=O)C(CNC(=O)c2ccco2)c2ccco2)ccc1F (configuration not stated)  12.6%
12. O=S(=O)(c1ccccc1)c1nc(-c2ccsc2)oc1NCC1CCCO1 (configuration not stated)  13.3%
13. CCOC(=O)c1cc(S(=O)(=O)N(C)CC(=O)Nc2ccc(C)cn2)cn1C  14.3%
14. O=S(=O)(Nc1cc(F)cc(F)c1)c1c[nH]c2ncccc12  14.8%
15. CCOC(=O)c1c(S(=O)(=O)NCC(=O)Nc2ccccc2)c(C)n(C)c1C  15.2%
16. O=C(Nc1nc(S(=O)(=O)Cc2ccccc2)ns1)c1ccccc1  15.8%
17. CCOC(=O)c1c(S(=O)(=O)NCC(=O)Nc2cccnc2)c(C)n(C)c1C  16.2%
18. CCOC(=O)c1c(C)[nH]c(C)c1S(=O)(=O)NCC(=O)Nc1cccnc1  16.5%
19. CCOc1ccc(OCC)c(Nc2c(-c3ccccc3)c(=O)c2=O)c1  16.8%
20. O=S(=O)(Nc1cc(F)ccc1F)c1c[nH]c2ncccc12  16.8%
21. COc1ccc(S(=O)(=O)C(CNC(=O)c2ccccc2)c2ccco2)cc1 (configuration not stated)  17.1%
22. O=C(Nc1nonc1-c1ccccc1)C1COc2ccccc2O1 (configuration not stated)  17.5%
23. O=C(CSC1=NS(=O)(=O)c2ccccc2N1)OCc1ccccc1  18.4%
24. c1cncc(CNc2nnc(-c3nc(C4CC4)no3)c3ccccc23)c1  18.5%
25. COc1cc(NS(=O)(=O)c2c[nH]c3ncccc23)cc(OC)c1  19.3%
26. O=C(CN1c2ccc(F)cc2-c2ccccc2S1(=O)=O)Nc1cccnc1  19.8%
27. CCCN1C=NS(=O)(=O)c2cc(C(=O)Nc3ccccc3F)ccc21  20.1%
28. COc1ccc(C2SCC(=O)Nc3[nH]nc(C)c32)c(OC)c1OC (configuration not stated)  20.5%
29. O=S(=O)(c1ccccc1)c1nc(-c2ccco2)oc1NCCCn1ccnc1  20.7%
30. Cc1cc(SCC(=O)c2ccc(O)cc2O)ncn1  20.9%
31. COc1ccccc1NS(=O)(=O)c1cc(-c2cnc(C3CC3)o2)ccc1C  21.1%
32. CCn1c(C)c(-c2nc(C3CC3)no2)c(S(=O)(=O)NCC2CCCO2)c1C (configuration not stated)  21.1%
33. CCn1cc(C(=O)NCc2ccco2)c(S(=O)(=O)N2CCSCC2)n1  22.1%
34. CC(=O)Cc1nsc(NC(=O)C2(C)Cc3ccccc3C(=O)O2)n1 (configuration not stated)  24.6%
35. O=C(NCCN1CCCC1)C1=C2CCCN2c2ccc(F)cc2S1(=O)=O  25.1%
36. COC(=O)C1CN(C(=O)C(C)Oc2ccccc2F)c2ccccc2O1 (configuration not stated)  25.5%
37. O=S(=O)(Nc1ccc(F)c(F)c1)c1c[nH]c2ncccc12  25.9%
38. Cc1nc2c(c(SCC(=O)c3ccc(O)cc3O)n1)CCC2  25.9%
39. Cc1nn(-c2ccccc2)c(O)c1/C=N/NC(=O)C(O)c1ccccc1 (configuration not stated)  28.1%
40. O=C(CN1c2cccc3cccc(c23)S1(=O)=O)Nc1ccc(F)c(F)c1  28.4%
41. CC(Sc1nnc(O)nc1O)C(=O)OCc1ccccc1 (configuration not stated)  28.6%
42. CN1C(C(=O)NCC2CCCO2)=CC(c2ccco2)=NS1(=O)=O (configuration not stated)  28.6%
43. CCOc1ccc(OCC)c(NS(=O)(=O)c2ccc3c(c2)N(C)CCO3)c1  29.2%
44. O=S(=O)(NCc1ccccn1)c1ccc(-c2ccno2)o1  30.6%
45. CCOC(=O)c1cc(S(=O)(=O)N2CCCC2C(=O)NC(C)(C)CC)cn1C (configuration not stated)  30.8%
46. O=S(=O)(c1cc(-c2nnc(C3CCCC3)o2)co1)N1CCc2ccccc2C1  32.3%
47. Cc1ccc(C)c(NS(=O)(=O)c2ccc(-c3nnc(C(C)C)o3)o2)c1  34.4%
48. COc1ccc(-c2cnc(C)o2)cc1S(=O)(=O)Nc1cccc(F)c1  36%
49. COc1cc(Nc2c(-c3ccccc3)c(=O)c2=O)cc(OC)c1  40%
50. COc1ccc(-c2cnc(C)o2)cc1S(=O)(=O)Nc1cccc(Cl)c1  40.6%
51. COc1ccc(OC)c(N(CC(=O)O)S(=O)(=O)c2ccccc2)c1  42%
52. O=S(=O)(NCc1cccnc1)c1ccc(-c2ccno2)o1  44.7%
53. COc1ccc(Cl)cc1N(CC(=O)O)S(=O)(=O)c1ccccc1  45.1%
54. CCOC(=O)COc1ccccc1/C=C1\N=C(SCC)SC1=O  45.3%
55. CSc1cccc(NS(=O)(=O)c2cc3c(cc2Cl)NC(=O)CO3)c1  68.7%
56. CC(C)C(=O)N1CCCc2cc(NS(=O)(=O)c3cccc(F)c3)ccc21  82.9%

molecular target: Bifunctional protein GlmU (Escherichia coli (strain K12), UniProt P0ACC7); assay: Inhibition of Escherichia coli GlmU acetyltransferase activity assessed as coenzyme A production using acetyl CoA substrate
Sequence (P0ACC7 whole entry): as the sequence (P0ACC7 whole entry, looked up) above

In order of rising pIC50:
1. COc1cc(OC)c(S(=O)(=O)N2c3ccccc3CC[C@@H]2C)cc1NC(=O)c1ccccc1  3.70
2. COc1cc(OC)c(S(=O)(=O)N(C)C)cc1NC(C)=O  3.70
3. COc1cc(OC)c(S(=O)(=O)N2CCC[C@H]2C)cc1NC(C)=O  3.70
4. COc1cc(OC)c(S(=O)(=O)NCc2ccccc2N2CCCCC2)cc1NC(C)=O  3.70
5. COc1cc(OC)c(S(=O)(=O)N2c3ccccc3CC[C@@H]2C)cc1NC(=O)COc1ccc(C(C)=O)cc1  3.70
6. COc1cc(OC)c(S(=O)(=O)NCc2ccc3c(c2)OCO3)cc1NC(C)=O  3.70
7. COc1cc(OC)c(S(=O)(=O)N2CCCC[C@@H]2C)cc1NC(C)=O  3.89
8. COc1cc(OC)c(S(=O)(=O)N2c3ccccc3CC[C@H]2C)cc1NS(C)(=O)=O  4.00
9. COc1cc(OC)c(S(=O)(=O)N2CCCCC2)cc1NC(C)=O  4.10
10. COc1cc(OC)c(S(=O)(=O)NCc2ccccc2N2CCC(CO)CC2)cc1NC(C)=O  4.40
11. COc1cc(OC)c(S(=O)(=O)Nc2ccc(F)cc2)cc1NC(C)=O  4.60
12. COc1cc(OC)c(S(=O)(=O)Nc2ccc(C)cc2)cc1NC(C)=O  4.68
13. COc1cc(OC)c(S(=O)(=O)Nc2cccc(C)c2)cc1NC(C)=O  4.77
14. CCN(c1ccccc1C)S(=O)(=O)c1cc(NC(C)=O)c(OC)cc1OC  4.82
15. COc1cc(OC)c(S(=O)(=O)NCc2ccccc2CC(=O)O)cc1NC(C)=O  4.82
16. COc1cc(OC)c(S(=O)(=O)Nc2cccc(F)c2)cc1NC(C)=O  4.82
17. COc1ccccc1CNS(=O)(=O)c1cc(NC(C)=O)c(OC)cc1OC  5.00
18. COc1cc(OC)c(S(=O)(=O)Nc2ccccc2F)cc1NC(C)=O  5.30
19. COc1cc(OC)c(S(=O)(=O)NCc2ccccc2Br)cc1NC(C)=O  5.40
20. COc1cc(OC)c(S(=O)(=O)NCc2ccccc2N2CCC(CO)CC2)cc1NC(=O)CCC(=O)O  5.52
21. COc1cc(OC)c(S(=O)(=O)NCc2ccccc2N2CCCCC2)cc1NC(=O)CCC(=O)O  5.52
22. COc1cc(OC)c(S(=O)(=O)N(C)c2ccccc2)cc1NC(C)=O  5.52
23. COc1cc(OC)c(S(=O)(=O)N(c2ccccc2)C(C)C)cc1NC(C)=O  5.70
24. COc1cc(OC)c(S(=O)(=O)N2c3ccccc3CC[C@H]2C)cc1NC(=O)COC(C)=O  5.70
25. COc1cc(OC)c(S(=O)(=O)N2c3ccccc3CC[C@H]2C)cc1NC(C)=O  5.82
26. COc1cc(OC)c(S(=O)(=O)N2c3ccccc3CC[C@H]2C)cc1NC(=O)CSc1ccncc1  6.00
27. COc1cc(OC)c(S(=O)(=O)NCc2ccccc2N2CCC(C(=O)O)CC2)cc1NC(=O)CCC(=O)O  6.30
28. COc1cc(OC)c(S(=O)(=O)N2c3ccccc3CC[C@H]2C)cc1NC(=O)NCC(=O)O  6.30
29. COc1cc(OC)c(S(=O)(=O)N2c3ccccc3CC[C@@H]2C)cc1NC(=O)/C=C/C(=O)O  6.30
30. COc1cc(O)c(S(=O)(=O)N2c3ccccc3CC[C@H]2C)cc1NC(=O)[C@H]1[C@H](C)[C@H]1C(=O)O  6.32
31. COc1cc(OC)c(S(=O)(=O)N2c3ccccc3CC[C@@H]2C)cc1NC(=O)CCc1nn[nH]n1  6.37
32. COc1cc(OC)c(S(=O)(=O)NCc2ccccc2N2CCC(CC(=O)O)CC2)cc1NC(=O)CCC(=O)O  6.40
33. COc1cc(OC)c(S(=O)(=O)NCc2ccccc2N2CCC(COC(=O)CCC(=O)O)CC2)cc1NC(=O)CCC(=O)O  6.60
34. COc1cc(OC)c(S(=O)(=O)N2c3ccccc3CC[C@@H]2C)cc1NC(=O)COCC(=O)O  6.70
35. COc1cc(OC)c(S(=O)(=O)N2c3ccccc3Sc3ccccc32)cc1NC(=O)CCC(=O)O  7.05
36. COc1cc(OC)c(S(=O)(=O)N2c3ccccc3Oc3ccccc32)cc1NC(=O)Cc1ccnc(F)c1  7.05
37. COc1cc(OC)c(S(=O)(=O)N2c3ccccc3CC[C@@H]2C)cc1NC(=O)CCC(=O)O  7.05
38. COc1cc(O)c(S(=O)(=O)N2c3ccccc3Oc3ccccc32)cc1NC(=O)[C@H]1[C@H](C)[C@@H]1C(=O)O  7.22
39. COc1cc(OC)c(S(=O)(=O)N2c3ccccc3Oc3ccccc32)cc1NC(=O)Cc1ccncc1  7.22
40. COc1cc(O)c(S(=O)(=O)N2c3ccccc3CC[C@H]2C)cc1NC(=O)CCC(=O)O  7.30
41. COc1cc(OC)c(S(=O)(=O)N(c2ccccc2)c2ccccc2)cc1NC(=O)CCC(=O)O  7.40
42. COc1cc(OC)c(S(=O)(=O)N(c2ccccc2)c2ccc3ccccc3c2)cc1NC(=O)CCC(=O)O  7.40
43. COc1cc(OC)c(S(=O)(=O)N2c3ccccc3Oc3ccccc32)cc1NC(=O)[C@H]1[C@@H](C)[C@H]1C(=O)O  7.52
44. COc1cc(OC)c(S(=O)(=O)N2Cc3ccccc3Oc3ccccc32)cc1NC(=O)CCC(=O)O  7.52
45. COc1cc(OC)c(S(=O)(=O)N2c3ccccc3Oc3ccccc32)cc1NC(=O)/C=C/C(=O)O  8.00
46. COc1cc(OC)c(S(=O)(=O)N2c3ccccc3Oc3ccccc32)cc1NC(=O)CCC(=O)O  8.00
